# In patent US6380218B1, “Nicotinamide derivatives” (Pfizer Inc, priority 1997, dated 2002):
# Structures can show the parent of a compound that is named as a salt.
compound,measurement,value
"CC(=O)c1cccc(Oc2ncccc2C(=O)NCc2ccc(C(C)(C)O)cc2)c1 [Example 221, 2-(3-Acetyl-phenoxy)-N-[4-(1-hydroxy-1-methyl-ethyl)-benzyl]-nicotinamide]",melting point,52 to 54 °C
"CN(C)c1cccc(Oc2ncccc2C(=O)NCc2ccccc2Cl)c1 (as salt: HCl) [Example 118, N-(2-Chloro-benzyl)-2-(3-dimethylamino-phenoxy)-nicotinamide]",melting point,85 to 87 °C
"O=C(NCC1CC1)c1cccnc1Oc1cncc(Cl)c1 [Example 98, 2-(5-Chloro-pyridin-3-yloxy)-N-cyclopropylmethyl-nicotinamide]",melting point,105 to 107 °C
"N#Cc1cccc(Oc2ncccc2C(=O)NCc2ccc(Cl)s2)c1 [Example 111, N-(5-Chloro-thiophen-2-ylmethyl)-2-(3-cyano-phenoxy)-nicotinamide]",melting point,145 to 147 °C
"CC(C)(O)c1cc(Cl)c(CNC(=O)c2cccnc2Oc2cccnc2)s1 [Example 44, N-[3-Chloro-5-(1-hydroxy-1-methyl-ethyl)-thiophen-2-ylmethyl]-2-(pyridin-3-yloxy)-nicotinamide]",melting point,74 to 76 °C
"O=C(NCc1cccc2[nH]ccc12)c1cccnc1Oc1cccnc1 [Example 180, N-(1H-Indol-4-ylmethyl)-2-(pyridin-3yloxy)-nicotinamide]",melting point,134 to 135 °C
"Cc1ccsc1CNC(=O)c1cccnc1Oc1cccnc1 [Example 20, N-(3-Methyl-thiophen-2-ylmethyl)-2-(pyridin-3-yloxy)-nicotinamide]",melting point,89 to 91 °C
"O=C(NCc1ccc(C(=O)C(F)(F)F)cc1)c1cccnc1Oc1cccnc1 [Example 219, 2-(Pyridin-3-yloxy)-N-(4-trifluoroacetyl-benzyl)-nicotinamide]",melting point,134 to 136 °C
"CC(C)(O)c1ccc(CNC(=O)c2cccnc2Oc2ccc3c(c2)OCO3)cc1 [Example 293, 2-(Benzo[1,3]dioxol-5-yloxy)-N-[4-(1-hydroxy-1-methyl-ethyl)-benzyl]-nicotinamide]",melting point,118 to 120 °C
"CS(=O)(=O)Nc1ccc(CNC(=O)c2cccnc2Oc2ccc(F)cc2)cc1 [Example 131, 2-(4-Fluoro-phenoxy)-N-(4-methanesulfonylamino-benzyl)-nicotinamide]",melting point,107 to 109 °C
"O=C(NCc1ccc(Cl)s1)c1cccnc1Oc1cccnc1 [Example 16, N-(5-Chloro-thiophen-2-ylmethyl)-2-(pyridin-3-yloxy)-nicotinamide]",melting point,110 to 112 °C
"O=C(NCc1ccc(N2CCCC2)cc1)c1cccnc1Oc1ccc(F)cc1 [Example 89, 2-(4-Fluoro-phenoxy)-N-(4-pyrrolidin-1-yl-benzyl)-nicotinamide]",melting point,127 to 128 °C
"CCCCCNC(=O)c1cccnc1Oc1cccnc1 [Example 175, N-Pentyl-2-(pyridin-3-yloxy)-nicotinamide]",melting point,61 to 62 °C
"O=C(NCc1ccccc1Cl)c1cccnc1Oc1ccc(F)cc1F [Example 10, N-(2-Chloro-benzyl)-2-(2,4-difluoro-phenoxy)-nicotinamide]",melting point,122 to 124 °C
"O=C(NCc1ccc(N2CCCCC2)cc1)c1cccnc1Oc1ccc(F)cc1 [Example 90, 2-(4-Fluoro-phenoxy)-N-(4-piperidin-1-yl-benzyl)-nicotinamide]",melting point,118 to 119 °C
"O=C(NCc1sc(Cl)cc1Cl)c1cccnc1Oc1ccc(F)cc1 [Example 97, N-(3,5-Dichloro-thiophen-2ylmethyl)-2-(4-fluoro-phenoxy)-nicotinamide]",melting point,132 to 134 °C
"CC(C)(O)c1ccc(CNC(=O)c2cccnc2Oc2ccc(F)cc2F)cc1 [Example 230, 2-(2,4-Difluoro-phenoxy)-N-[4-(1-hydroxy-1-methyl-ethyl)-benzyl]-nicotinamide]",melting point,92 to 94 °C
"O=C(CCc1ccc(OC(F)(F)F)cc1)c1cccnc1Oc1ccc(F)cc1 [Example 253, 1-[2-(4-Fluoro-phenoxy)-pyridin-3-yl]-3-(4-trifluoromethoxy-phenyl)-propan-1-one]",melting point,79 to 81 °C
"O=C(NCc1ccc(N2CCOCC2)cc1)c1cccnc1Oc1ccc(F)cc1 [Example 91, 2-(4-Fluoro-phenoxy)-N-(4-morpholin-4-yl-benzyl)-nicotinamide]",melting point,163 to 165 °C
"CC(C)(O)c1ccc(CNC(=O)c2cccnc2Oc2cccc([N+](=O)[O-])c2)cc1 [Example 107, N-[4-(1-Hydroxy-1-methyl-ethyl)-benzyl]-2-(3-nitro-phenoxy)-nicotinamide]",melting point,43 to 45 °C
"O=C(COc1ccccc1)c1cccnc1Oc1ccc(F)cc1 [Example 265, 1-[2-(4-Fluoro-phenoxy)-pyridin-3-yl]-2-phenoxy-ethanone]",melting point,105.5 to 106.5 °C
"O=C(NCc1ccc(N2CC(O)C2)cc1)c1cccnc1Oc1ccc(F)cc1 [Example 88, 2-(4-Fluoro-phenoxy)-N-[4-(3-hydroxy-azetidin-1-yl)-benzyl]-nicotinamide]",melting point,157 to 159 °C
"O=C(NCc1ccc(F)cc1)c1cccnc1Oc1cccnc1 [Example 28, N-(4-Fluoro-benzyl]-2-(pyridin-3-yloxy)-nicotinamide]",melting point,129 to 131 °C
"O=C(CCc1ccccc1)c1cccnc1Oc1ccc(F)cc1 [Example 256, 1-[2-(4-Fluorophenoxy)-3-pyridinyl]-3-phenyl-1-propanone]",melting point,82 to 83 °C
"CC(C)(C)c1cc(CNC(=O)c2cccnc2Oc2ccc(F)cc2)cc(C(C)(C)C)c1O [Example 76, N-[3,5-Di-tert-butyl-4-hydroxy-benzyl)-2-(4-fluoro-phenoxyl)nicotinamide]",melting point,45 to 47 °C
"COc1ccccc1NC(=O)Nc1cccc(Oc2ncccc2C(=O)NCc2ccccc2Cl)c1 [Example 138, N-(2-Chloro-benzyl)-2-(3-[3-(2-methoxy-phenyl)-ureido]-phenoxy}-nicotinamide]",melting point,180 to 182 °C
"CC(=O)c1cccc(Oc2ncccc2C(=O)NCc2ccc(C(C)(C)O)cc2Cl)c1 [Example 235, 2-(3-Acetyl-phenoxy)-N-[2-chloro-4-(1-hydroxy-1-methyl-ethyl)-benzyl]-nicotinamide]",melting point,102 to 104 °C
"CCc1n[nH]c2ccc(C(NC(=O)c3cccnc3Oc3cccc(C#N)c3)C3CCCCC3)cc12 (stereo not drawn) [Example 117, 2-(3-Cyano-phenoxy)-N-(-cyclohexyl-3-ethyl-1H-indazol-5-ylmethyl)-nicotinamide]",melting point,56 to 58 °C
"O=C(NCC1CCC(O)CC1)c1cccnc1Oc1ccc(F)cc1 (stereo not drawn) [Example 288, 2-(4-Fluoro-phenoxy)-N-(4-hydroxy-cyclohexylmethyl)-nicotinamide]",melting point,110 to 112 °C
"CC(C)(O)[C@H]1CC[C@H](CNC(=O)c2cccnc2Oc2ccc(F)cc2F)CC1 [Example 239, trans-2-(2,4-Difluoro-phenoxy)-N-[4-(1-hydroxy-1-methyl-ethyl)-cyclohexylmethyl]-nicotinamide]",melting point,92 to 94 °C
"CC(C)(O)c1ccc(CNC(=O)c2cccnc2Oc2ccc(F)c(C#N)c2)c(Cl)c1 [Example 244, N-[2-Chloro-4-(1-hydroxy-1-methyl-ethyl)-benzyl]-2-(3-cyano-4-fluoro-phenoxy)-nicotinamide]",melting point,151 to 153 °C
"Cc1cnc(CNC(=O)c2cccnc2Oc2ccc(F)cc2)cn1 [Example 209, 2-(4-Fluoro-phenoxy)-N-(5-methyl-pyrazin-2-ylmethyl)-nicotinamide]",melting point,159 °C
"Cc1ccc(CNC(=O)c2cccnc2Oc2cncc(Cl)c2)o1 [Example 53, 2-(5-Chloro-pyridin-3-yloxy)-N-(5-methyl-furan-2-ylmethyl)-nicotinamide]",melting point,103 to 105 °C
"O=C(NCc1ccc2c(c1)OCO2)c1cccnc1Oc1cccnc1 [Example 182, N-Benzo[1,3]dioxol-5-ylmethyl-2-(pyridin-3-yloxy)-nicotinamide]",melting point,130 to 131 °C
"CC(=O)c1ccc(CNC(=O)c2cccnc2Oc2cccnc2)s1 [Example 159, N-(5-Acetyl-thiophen-2-ylmethyl)-2-(pyridin-3-yloxy)-nicotinamide]",melting point,201 to 203 °C
"NC(=O)c1cccc(Oc2ncccc2C(=O)NCc2ccccc2Cl)c1 [Example 289, 2-(3-Carbamoyl-phenoxy)-N-(2-chloro-benzyl)-nicotinamide]",melting point,153 to 155 °C
"COc1ccc(CNC(=O)c2cccnc2Oc2cccnc2)cc1 [Example 29, N-(4-Methoxy-benzyl)-2-(pyridin-3-yloxy)-nicotinamide]",melting point,62 to 64 °C
"O=C(NCc1ccco1)c1cccnc1Oc1cccnc1 [Example 15, N-Furan-2-ylmethyl-2-(pyridin-3-yloxy)-nicotinamide]",melting point,84 to 86 °C
"O=C1Cc2cc(CNC(=O)c3cccnc3Oc3cccnc3)ccc2N1 [Example 33, N-(2-Oxo-2,3-dihydro-1H-indol-5-ylmethyl)-2-(pyridin-3-yloxy)-nicotinamide]",melting point,109 to 111 °C
"O=C(CCc1ccc(C(F)(F)F)cc1)c1cccnc1Oc1ccc(F)cc1 [Example 252, 1-[2-(4-Fluoro-phenoxy)-pyridin-3-yl]-3-(4-trifluoromethyl-phenyl)-propan-1-one]",melting point,94 to 95 °C
"O=C(NCc1ccc(C2(O)CCC2)cc1)c1cccnc1Oc1cccnc1 [Example 42, N-[4-(1-Hydroxy-cyclobutyl)-benzyl]-2-(pyridin-3-yloxy)-nicotinamide]",melting point,116 to 118 °C
"CC(C)(O)c1ccc(CNC(=O)c2cccnc2Oc2cccc(C#N)c2)c(Cl)c1 [Example 116, N-[2-Chloro-4-(1-hydroxy-1-methyl-ethyl)-benzyl]-2-(3-cyano-phenoxy)-nicotinamide]",melting point,121 to 123 °C
"O=C(NCc1ccc(OC(F)F)cc1)c1cccnc1Oc1cccnc1 [Example 27, N-(4-Difluoromethoxy-benzyl)-2-(pyridin-3-yloxy)-nicotinamide]",melting point,91 to 93 °C
"CC(=O)c1ccc(CC(=O)Nc2cccnc2Oc2ccc(F)cc2)cc1 [Example 137, 2-(4-Acetyl-phenyl)-N-[2-(4-fluoro-phenoxy)-pyridin-3-yl]-acetamide]",melting point,118 to 120 °C
"O=C(NCc1ccccc1F)c1cccnc1Oc1cccnc1 [Example 26, N-(2-Fluoro-benzyl)-2-(pyridin-3-yloxy)-nicotinamide]",melting point,90 to 92 °C
